Our source for the EC50 values is patent publication US7317125B2 (Hoffman-La Roche Inc., priority 2005, dated 2008).

The assay addresses T1, DGAT1 (Homo sapiens, UniProt O75907).
T1 construct: expressed in transfected cells; host or cells: CHOK1
T1 sequence (O75907 1-488): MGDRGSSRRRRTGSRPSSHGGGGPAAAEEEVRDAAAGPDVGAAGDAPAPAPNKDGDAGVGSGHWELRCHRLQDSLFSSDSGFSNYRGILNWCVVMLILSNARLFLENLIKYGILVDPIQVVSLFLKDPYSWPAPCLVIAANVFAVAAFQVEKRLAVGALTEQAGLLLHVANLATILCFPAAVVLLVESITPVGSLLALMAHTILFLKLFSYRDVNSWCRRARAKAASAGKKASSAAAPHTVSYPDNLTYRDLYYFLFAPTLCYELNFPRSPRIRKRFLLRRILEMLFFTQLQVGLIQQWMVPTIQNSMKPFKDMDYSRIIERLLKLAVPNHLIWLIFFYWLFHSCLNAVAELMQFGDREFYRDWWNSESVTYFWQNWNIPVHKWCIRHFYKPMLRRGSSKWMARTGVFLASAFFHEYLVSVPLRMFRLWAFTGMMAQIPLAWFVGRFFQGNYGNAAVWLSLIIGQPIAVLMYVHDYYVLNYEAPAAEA
Description: DGAT CHOK1 Cell Assay. The settings on record: CHOK1 cells transfected with DGAT1, 14C palmitic acid, 1 hour at 37° C., triglyceride by TLC. The class given is cell-based. The source says:
Materials for the assay were: petroleum ether (J. T. Baker #9268-22); diethyl ether (Aldrich #30995-8); acetic acid; 1,2-dioleoyl-3-palmitoyl-glycerol (Sigma D-1782); ^[…] Palmitic Acid (56.0 mCi/mmol PerkinElmer Life Sciences # NEC 075H); DMEM/F12 (Gibco #11330-032); fetal bovine serum; L-Glutamine; G418/ml media; DMEM High Glucose (Gibco #11995-065); BSA Fraction V Fatty Acid Free (Roche #100 377); 20×°cm silica gel 60 glass plates (EM Science Plates #5721/7).
CHOK1/DGAT cell culture medium was prepared with DMEM/F12 (Gibco #11330-032), […], and 20 ul G418/ml media. 1,2-dioleoyl-3-palmitoyl-glycerol was prepared by dissolving 10 mg into 1 ml chloroform and stored at −20° C. in 100 μl aliquots. Test compounds were prepared as 10 mM stock solutions in DMSO and store at −20° C. before use. Test dilutions were prepared by five fold serial dilutions over final concentrations.
CHOK1 cells transfected with DGAT1 were diluted in 6 well plates at 2.5×10^5 cells per well and cultured overnight. Cells were then washed twice with PBS. Test compound solutions (10 μl/2 ml media aliquots) in DMEM High Glucose with 0.01% BSA (fatty acid free) were added to cell culture plates at 800 μl per well. ^14C Palmitic acid (0.5 μCi, 5 μl) was added to each well. The plates were incubated for 1 hour at 37° C. After the incubation period, the plates were placed on ice, cells were scraped into media and transferred to microfuge tubes. 400 μl chloroform:methanol (2:1) was added to each tube. Each tube was briefly vortexed by hand, then mechanically vortexed for 10 minutes. Each tube was then centrifuged at 14,000 RPM for 10 minutes at 4° C. and the bottom layer removed and transferred to a new microfuge tube.
Extracted samples were spotted onto TLC plates at 20 μl per lane. The TLC plates were eluted with a solvent mixture of petroleum ether, diethyl ether and acetic acid (80:20:1) and air dried. Trigylceride (TG) spots were visualized by placing in an iodine chamber for several minutes. 1 μl of ^14C palmitic acid (diluted 1:10 in 100% EtOH) was spotted on the TG standard lane (at TG level) as a reference. The TLC plates were wrapped in plastic wrap and placed in a phosphorimager cassette for scanning.
The EC50 values for those compounds tested in this Example were generated using an Excel template, the results of which are shown in Table II: […]
On to `CC(C)N(NC(=O)c1ccccc1)C(=O)CSc1ccccc1-c1ccc(F)cc1` [Example 51, benzoic acid N′-[2-(4′-fluoro-biphenyl-2-ylsulfanyl)-acetyl]-N′-isopropyl-hydrazide], for which the EC50 turned out to be 4900 nM.
Turning to `CC(C)N(NC(=O)c1cccs1)C(=O)COc1ccc(F)cc1-c1ccccc1OC(F)(F)F` [Example 40, thiophene-2-carboxylic acid N′-[2-(5-fluoro-2′-trifluoromethoxy-biphenyl-2-yloxy)-acetyl]-N′-isopropyl hydrazide], the EC50 was 3480 nM.
`CC(C)c1cccc(-c2cc(F)ccc2OCC(=O)N(NC(=O)c2ccccc2)C(C)C)c1` [Example 12, benzoic acid N′-[2-(5-fluoro-3′-isopropyl-biphenyl-2-yloxy)-acetyl]-N′-isopropyl-hydrazide]: the concentration giving a half-maximal response (EC50) is 1010 nM.
In turn, `Cc1cccc(-c2cc(F)ccc2OCC(=O)N(NC(=O)c2ccccc2)C(C)C)c1C` [Example 19, benzoic acid N′-[2-(2′,3′-dimethyl-5-fluoro-biphenyl-2-yloxy)-acetyl]-N′-isopropyl-hydrazide] displayed an EC50 of 1300 nM.
Regarding `CC(C)N(NC(=O)c1ccccc1)C(=O)CSc1ccccc1-c1ccccc1` [Example 56, benzoic acid N′-[2-(biphenyl-2-ylsulfanyl)-acetyl]-N′-isopropyl-hydrazide], the EC50 worked out at 37400 nM.
The result for `CC(C)N(NC(=O)c1ccccc1)C(=O)COc1ccc(F)cc1-c1ccccc1F` [Example 5, benzoic acid N′-[2-(5,2′-difluoro-biphenyl-2-yloxy)-acetyl]-N′-isopropyl-hydrazide] reads 2210 nM; that for `CCc1ccccc1-c1cc(F)ccc1OCC(=O)N(NC(=O)c1ccccc1)C(C)C` [Example 16, benzoic acid N′-[2-(2′-ethyl-5-fluoro-biphenyl-2-yloxy)-acetyl]-N′-isopropyl-hydrazide], 216 nM; that for `CC(C)N(NC(=O)c1ccccc1)C(=O)COc1ccc(F)cc1-c1cccc(F)c1` [Example 9, benzoic acid N′-[2-(5,3′-difluoro-biphenyl-2-yloxy)-acetyl]-N′-isopropyl-hydrazide], 3780 nM.
The result for `CC(C)N(NC(=O)c1ccccc1)C(=O)COc1cc(F)c(F)cc1-c1ccccc1OC(F)(F)F` [Example 32, benzoic acid N′-[2-(4,5-difluoro-2′-trifluoromethoxy-biphenyl-2-yloxy)-acetyl]-N′-isopropyl hydrazide] reads 938 nM.
Turning to `COCCOc1ccc(C(=O)NN(C(=O)COc2ccc(F)cc2-c2ccccc2OC(F)(F)F)C(C)C)cc1` [Example 39, 4-(2-methoxy-ethoxy)-benzoic acid N′-[2-(5-fluoro-2′-trifluoromethoxy-biphenyl-2-yloxy)-acetyl]-N′-isopropyl hydrazide], it took 3050 nM to reach a half-maximal effect (EC50).
`CC(C)c1ccccc1-c1cc(F)ccc1OCC(=O)N(NC(=O)c1ccccc1)C(C)C` [Example 22, benzoic acid N′-[2-(5-fluoro-2′-isopropyl-biphenyl-2-yloxy)-acetyl]-N′-isopropyl-hydrazide] had an EC50 of 380 nM.
The result for `Cc1ccccc1-c1cc(F)ccc1OCC(=O)N(NC(=O)c1ccccc1)C(C)C` [Example 3, benzoic acid N′-[2-(5-fluoro-2′-methyl-biphenyl-2-yloxy)-acetyl]-N′-isopropyl-hydrazide] reads 1020 nM.
With `CC(C)N(NC(=O)c1ccoc1)C(=O)COc1ccc(F)cc1-c1ccccc1OC(F)(F)F` [Example 37, furan-3-carboxylic acid N′-[2-(5-fluoro-2′-trifluoromethoxy-biphenyl-2-yloxy)-acetyl]-N′-isopropyl-hydrazide], the half-maximal effective concentration (EC50) was determined as 11100 nM.
For the compound `CC(C)N(NC(=O)c1ccccc1)C(=O)COc1ccc(F)cc1-c1ccccc1[N+](=O)[O-]` [Example 14, benzoic acid N′-[2-(5-fluoro-2′-nitro-biphenyl-2-yloxy)-acetyl]-N′-isopropyl-hydrazide], the response was half-maximal at 230 nM (EC50).
The result for `CCc1ccccc1-c1cc(C)ccc1OCC(=O)N(NC(=O)c1ccccc1)C(C)C` [Example 26, benzoic acid N′-[2-(2′-ethyl-5-methyl-biphenyl-2-yloxy)-acetyl]-N′-isopropyl-hydrazide] reads 880 nM; that for `CC(C)Oc1ccccc1-c1cc(F)ccc1OCC(=O)N(NC(=O)c1ccccc1)C(C)C` [Example 15, benzoic acid N′-[2-(5-fluoro-2′-isopropoxy-biphenyl-2-yloxy)-acetyl]-N′-isopropyl-hydrazide], 4860 nM.
The result for `CC(C)N(NC(=O)C1CCCCC1)C(=O)COc1ccc(F)cc1-c1ccccc1OC(F)(F)F` [Example 38, cyclohexanecarboxylic acid N′-[2-(5-fluoro-2′-trifluoromethoxy-biphenyl-2-yloxy)-acetyl]-N′-isopropyl-hydrazide] reads 2810 nM; that for `CC(C)CNc1ccc(C(=O)NN(C(=O)COc2ccc(F)cc2-c2ccccc2OC(F)(F)F)C(C)C)cc1` [Example 57, 4-(isobutylamino)-benzoic acid N′-[2-(5-fluoro-2′-trifluoromethoxy-biphenyl-2-yloxy)-acetyl]-N′-isopropyl hydrazide], 348 nM; that for `CC(C)N(NC(=O)c1ccccc1)C(=O)COc1ccc(F)cc1-c1ccccc1OC(F)(F)F` [Example 20, benzoic acid N′-[2-(5-fluoro-2′-trifluoromethoxy-biphenyl-2-yloxy)-acetyl]-N′-isopropyl-hydrazide], 328 nM.
The result for `CCc1ccccc1-c1cc(F)cc(F)c1OCC(=O)N(NC(=O)c1ccccc1)C(C)C` [Example 28, benzoic acid N′-[2-(2′-ethyl-3,5-difluoro-biphenyl-2-yloxy)-acetyl]-N′-isopropyl-hydrazide] reads 296 nM.
In the case of `CC(C)N(NC(=O)C1CCSCC1)C(=O)COc1ccc(F)cc1-c1ccccc1OC(F)(F)F` [Example 41, tetrahydro-thiopyran-4-carboxylic acid N′-[2-(5-fluoro-2′-trifluoromethoxy-biphenyl-2-yloxy)-acetyl]-N′-isopropyl hydrazide], the midpoint of the response, the EC50, lay at 774 nM.
Next, `CCc1ccccc1-c1cc(F)c(F)cc1OCC(=O)N(NC(=O)c1ccccc1)C(C)C` [Example 27, benzoic acid N′-[2-(2′-ethyl-4,5-difluoro-biphenyl-2-yloxy)-acetyl]-N′-isopropyl-hydrazide]: 2100 nM.
Compound `CC(C)N(NC(=O)c1ccsc1)C(=O)COc1ccc(F)cc1-c1ccccc1OC(F)(F)F` [Example 42, thiophene-3-carboxylic acid N′-[2-(5-fluoro-2′-trifluoromethoxy-biphenyl-2-yloxy)-acetyl]-N′-isopropyl hydrazide] yielded an EC50 of 3290 nM.
As for `COc1cccc(-c2ccccc2SCC(=O)N(NC(=O)c2ccccc2)C(C)C)c1` [Example 50, benzoic acid N′-[2-(3′-methoxy-biphenyl-2-ylsulfanyl)-acetyl]-N′-isopropyl-hydrazide], the half-maximal effective concentration (EC50) came to 1290 nM.
The compound `CC(C)N(NC(=O)C1CCOCC1)C(=O)COc1ccc(F)cc1-c1ccccc1OC(F)(F)F` [Example 34, tetrahydro-pyran-4-carboxylic-acid-N′-[2-(5-fluoro-2′-trifluoromethoxy-biphenyl-2-yloxy)-acetyl]-N′-isopropyl-hydrazide] yielded an EC50 of 1240 nM.
In turn, `Cc1cccc(-c2ccccc2SCC(=O)N(NC(=O)c2ccccc2)C(C)C)c1C` [Example 49, benzoic acid N′-[2-(2′,3′-dimethyl-biphenyl-2-ylsulfanyl)-acetyl]-N′-isopropyl-hydrazide] came in with an EC50 of 5670 nM.
`CC(C)N(NC(=O)c1ccccc1)C(=O)COc1ccc(F)cc1-c1ccc(F)cc1F` [Example 24, benzoic acid N′-[2-(5,2′,4′-trifluoro-biphenyl-2-yloxy)-acetyl]-N′-isopropyl-hydrazide] displayed an EC50 of 2930 nM.

One may read the EC50 as the concentration at which the effect is half-maximal. A lower EC50 goes with an effect from little substance.
